#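 At the GI50, growth is halved. TGI: total growth inhibition.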
# Assays:
# Test in all cases: inhibition of tumour cell growth, NCI panel, 384-well format
# MDA-MB-468 breast = test system: MDA-MB-468 breast
# MOLT-4 leukemia = test system: MOLT-4 leukemia
# EKVX NSCLC = test system: EKVX NSCLC
# HCC-2998 colon = test system: HCC-2998 colon
# SK-OV-3 ovarian = test system: SK-OV-3 ovarian
# SN12C renal = test system: SN12C renal
# SF-268 CNS = test system: SF-268 CNS
# HCT-116 colon = test system: HCT-116 colon
# A498 renal = test system: A498 renal
# CCRF-CEM leukemia = test system: CCRF-CEM leukemia
# HOP-62 NSCLC = test system: HOP-62 NSCLC
# OVCAR-5 ovarian = test system: OVCAR-5 ovarian
# RXF 393 renal = test system: RXF 393 renal
# T-47D breast = test system: T-47D breast
# NCI-H23 lung = test system: NCI-H23 lung
# IGROV1 ovarian = test system: IGROV1 ovarian
# ACHN renal = test system: ACHN renal
# OVCAR-3 ovarian = test system: OVCAR-3 ovarian
# HL-60(TB) leukemia = test system: HL-60(TB) leukemia
# MCF7 breast = test system: MCF7 breast
# KM12 colon = test system: KM12 colon
# HOP-92 NSCLC = test system: HOP-92 NSCLC
# SNB-19 CNS = test system: SNB-19 CNS
# OVCAR-8 ovarian = test system: OVCAR-8 ovarian
# SF-539 CNS = test system: SF-539 CNS
# SW-620 colon = test system: SW-620 colon
# DU-145 prostate = test system: DU-145 prostate
# MALME-3M melanoma = test system: MALME-3M melanoma
# HCT-15 colon = test system: HCT-15 colon
# CAKI-1 renal = test system: CAKI-1 renal
# SNB-75 CNS = test system: SNB-75 CNS
# SK-MEL-5 melanoma = test system: SK-MEL-5 melanoma
# NCI-H226 lung = test system: NCI-H226 lung
# NCI-H522 lung = test system: NCI-H522 lung
# NCI-H460 NSCLC = test system: NCI-H460 NSCLC
# HS 578T breast = test system: HS 578T breast
# PC-3 prostate = test system: PC-3 prostate
# 786-0 renal = test system: 786-0 renal
# TK-10 renal = test system: TK-10 renal
# OVCAR-4 ovarian = test system: OVCAR-4 ovarian
# MDA-MB-231 breast = test system: MDA-MB-231 breast
# NCI/ADR-RES ovarian = test system: NCI/ADR-RES ovarian
# MDA-MB-435 melanoma = test system: MDA-MB-435 melanoma
compound,measurement,setting,value
CN1CCN(c2ccc(OC(F)(F)F)c(Nc3ncc4c(n3)-c3c(c(C(N)=O)nn3CCO)CC4)c2)CC1,GI50,MDA-MB-468 breast,< 10 nM
same,TGI,MDA-MB-468 breast,< 10 nM
same,GI50,MOLT-4 leukemia,10 nM
same,TGI,MOLT-4 leukemia,22.1 nM
same,GI50,EKVX NSCLC,93.6 nM
same,TGI,EKVX NSCLC,19400 nM
same,GI50,HCC-2998 colon,18.4 nM
same,TGI,HCC-2998 colon,61.6 nM
same,GI50,SK-OV-3 ovarian,37.6 nM
same,TGI,SK-OV-3 ovarian,> 100000 nM
same,GI50,SN12C renal,546 nM
same,TGI,SN12C renal,15100 nM
same,GI50,SF-268 CNS,< 10 nM
same,TGI,SF-268 CNS,12 nM
same,GI50,HCT-116 colon,19.8 nM
same,TGI,HCT-116 colon,13000 nM
same,GI50,A498 renal,87.1 nM
same,TGI,A498 renal,17300 nM
same,GI50,CCRF-CEM leukemia,< 10 nM
same,TGI,CCRF-CEM leukemia,< 10 nM
same,GI50,HOP-62 NSCLC,25.2 nM
same,TGI,HOP-62 NSCLC,297 nM
same,GI50,OVCAR-5 ovarian,30.8 nM
same,TGI,OVCAR-5 ovarian,> 100000 nM
same,GI50,RXF 393 renal,15.1 nM
same,TGI,RXF 393 renal,43.9 nM
same,GI50,T-47D breast,184 nM
same,TGI,T-47D breast,8330 nM
same,GI50,NCI-H23 lung,13.9 nM
same,TGI,NCI-H23 lung,37.7 nM
same,GI50,IGROV1 ovarian,40.6 nM
same,TGI,IGROV1 ovarian,15900 nM
same,GI50,ACHN renal,554 nM
same,TGI,ACHN renal,19700 nM
same,GI50,OVCAR-3 ovarian,< 10 nM
same,TGI,OVCAR-3 ovarian,37.2 nM
same,GI50,HL-60(TB) leukemia,< 10 nM
same,TGI,HL-60(TB) leukemia,< 10 nM
same,GI50,MCF7 breast,18.3 nM
same,TGI,MCF7 breast,12500 nM
same,GI50,KM12 colon,11.4 nM
same,TGI,KM12 colon,95.4 nM
same,GI50,HOP-92 NSCLC,73.9 nM
same,TGI,HOP-92 NSCLC,6660 nM
same,GI50,SNB-19 CNS,39.2 nM
same,TGI,SNB-19 CNS,> 100000 nM
same,GI50,OVCAR-8 ovarian,18.3 nM
same,TGI,OVCAR-8 ovarian,37.6 nM
same,GI50,SF-539 CNS,30.8 nM
same,TGI,SF-539 CNS,263 nM
same,GI50,SW-620 colon,13.6 nM
same,TGI,SW-620 colon,145 nM
same,GI50,DU-145 prostate,26.4 nM
same,TGI,DU-145 prostate,104 nM
same,GI50,MALME-3M melanoma,68.5 nM
same,TGI,MALME-3M melanoma,16700 nM
same,GI50,HCT-15 colon,56.1 nM
same,TGI,HCT-15 colon,347 nM
same,GI50,CAKI-1 renal,478 nM
same,TGI,CAKI-1 renal,19400 nM
same,GI50,SNB-75 CNS,64 nM
same,TGI,SNB-75 CNS,4690 nM
same,GI50,SK-MEL-5 melanoma,11.5 nM
same,TGI,SK-MEL-5 melanoma,121 nM
same,GI50,NCI-H226 lung,14800 nM
same,TGI,NCI-H226 lung,56300 nM
same,GI50,NCI-H522 lung,< 10 nM
same,TGI,NCI-H522 lung,26.6 nM
same,GI50,NCI-H460 NSCLC,17.8 nM
same,TGI,NCI-H460 NSCLC,37.7 nM
same,GI50,HS 578T breast,20.2 nM
same,TGI,HS 578T breast,54.1 nM
same,GI50,PC-3 prostate,43.8 nM
same,TGI,PC-3 prostate,35200 nM
same,GI50,786-0 renal,52.7 nM
same,TGI,786-0 renal,10300 nM
same,GI50,TK-10 renal,17300 nM
same,TGI,TK-10 renal,> 100000 nM
same,GI50,OVCAR-4 ovarian,6100 nM
same,TGI,OVCAR-4 ovarian,27100 nM
same,GI50,MDA-MB-231 breast,38.3 nM
same,TGI,MDA-MB-231 breast,58100 nM
same,GI50,NCI/ADR-RES ovarian,325 nM
same,TGI,NCI/ADR-RES ovarian,1330 nM
same,GI50,MDA-MB-435 melanoma,10.8 nM
same,TGI,MDA-MB-435 melanoma,28.8 nM

# Source: PubChem BioAssay (NCI)
